Where two headings read alike, the source gives them in different places. Non-standard residues stand in square brackets, D forms with d. Residues, ends and D or L forms follow the SMILES beside them. *: point of attachment. dNMeF = CN[C@H](Cc1ccccc1)C(=O)O; Cha = N[C@@H](CC1CCCCC1)C(=O)O; NMeK = CN[C@@H](CCCCN)C(=O)O; dNMeK = CN[C@H](CCCCN)C(=O)O; ClZ = O=C(OCc1ccccc1Cl)*; Bn = c1ccc(C*)cc1
What was measured:
[1] = tested on: HCT-116 colon cancer cells; assay: 3H-thymidine uptake cytotoxicity assay; assay type: cell-based
colon cancers = details: drug of choice for colon cancer treatment; no reference given; cited from earlier work

Row | SMILES | cytotoxicity (in words) [1] | also measured
1 | CC(C)C[C@@H]1NC(=O)[C@H](Cc2ccccc2)NC(=O)[C@H](CCCCN)N(C)C(=O)[C@H](CC(C)C)NC(=O)[C@H](C(C)C)NC1=O [Compound 35, Phe-Leu-Val-Leu-N-Me-Lys] (cyclo(FLVL[NMeK])) | inactive | –
2 | CC(C)[C@H]1NC(=O)[C@@H](Cc2ccccc2)NC(=O)[C@H](Cc2ccccc2)NC(=O)[C@H](COCc2ccccc2)NC(=O)[C@H](CC2CCCCC2)NC1=O [Compound 20, Phe-D-Phe-D-Val-Cha-Ser(Bn)] (cyclo([Cha]S(Bn)F[dF][dV])) | little cytotoxic activity | –
3 | CC(C)C[C@@H]1NC(=O)[C@H](Cc2ccccc2)NC(=O)[C@H](CCCCN)NC(=O)[C@H](CC(C)C)NC(=O)[C@H](C(C)C)NC1=O [Compound 32, Phe-Leu-Val-Leu-Lys] (cyclo(FLVLK)) | inactive | –
4 | CC(C)C[C@@H]1NC(=O)[C@H](Cc2ccccc2)NC(=O)[C@@H](Cc2ccccc2)NC(=O)[C@@H](CCCCNC(=O)OCc2ccccc2Cl)N(C)C(=O)[C@H](C(C)C)NC1=O [Compound 41, Phe-Leu-Val-N-Me-D-Lys(Cl-Cbz)-D-Phe] (cyclo(FLV[dNMeK](ClZ)[dF])) | not very potent at all | –
5 | CC(C)C[C@@H]1NC(=O)[C@H](Cc2ccccc2)NC(=O)[C@H](CCCCN)NC(=O)[C@H](CC(C)C)NC(=O)[C@@H](C(C)C)NC1=O [Compound 37, Phe-Leu-D-Val-Leu-Lys] (cyclo(FL[dV]LK)) | inactive | –
6 | CC(C)C[C@@H]1NC(=O)[C@H](Cc2ccccc2)NC(=O)[C@@H](Cc2ccccc2)N(C)C(=O)[C@@H](CCCCNC(=O)OCc2ccccc2Cl)NC(=O)[C@H](C(C)C)NC1=O [Compound 42, Phe-Leu-Val-D-Lys(Cl-Cbz)-N-Me-D-Phe] (cyclo(FLV[dK](ClZ)[dNMeF])) | remarkable cytotoxicity | –
7 | CC(C)C[C@@H]1NC(=O)[C@H](C(C)C)NC(=O)[C@@H](Cc2ccccc2)N(C)C(=O)[C@H](Cc2ccccc2)NC(=O)[C@H](CCCCN)NC1=O [Compound 30, Phe-N-Me-D-Phe-Val-Leu-Lys] (cyclo(F[dNMeF]VLK)) | not active | –
8 | CC(C)[C@H]1NC(=O)[C@@H](Cc2ccccc2)N(C)C(=O)[C@H](Cc2ccccc2)NC(=O)[C@H](COCc2ccccc2)NC(=O)[C@H](CC2CCCCC2)NC1=O [Compound 19, Phe-N-Me-D-Phe-D-Val-Cha-Ser(Bn)] (cyclo([Cha]S(Bn)F[dNMeF][dV])) | – | half-life (Half-life (minutes) n1, n1): 45 min; half-life (Half-life (minutes) n2, n2): 30 min
9 | O=c1[nH]cc(F)c(=O)[nH]1 [Compound 5-FU, 5-fluorouracil] | – | IC50 (colon cancers): 5 µM
